Measured values published in patent publication US8853424B2 (Japan Science and Technology Agency, priority 2008, dated 2014).

Experiments:
[1] = tested on: transglutaminase (TGase); assay: Measurement of TG (TGase inhibitory activity, monodansyl cadaverine / N,N-dimethylcasein fluorescence, FDSS 3000); format: biochemical
Method: For example, the method described in the Example can be performed.
The compound of the present invention (10 mM, 1 μL) was taken in a 96-well plate (Nunc, 96 Well Black Plate with Clear Bottom), an enzyme reaction solution (100 mM HEPES-NaOH, pH 7.5, 1 mM CaCl2, 20 μM monodansyl cadaverine, 0.05 mg/mL N,N-dimethylcasein, 5 μg/mL TGase) (0.1 ml) was added and the mixture was sufficiently mixed without making foams. The mixture was set on a fluorescence drug screening system FDSS 3000 (Hamamatsu Photonics K.K.), and changes in the fluorescence wavelength per unit time at 340 nm were measured, based on which the TGase inhibitory activity of the compound of the present invention was calculated. As a control, change in the fluorescence when 1 μL of DMSO (dimethyl sulfoxide) was added instead of the compound of the present invention was taken as 100, and TG50 was when the activity decreased to half due to the compound of the present invention.

[2] = tested on: Truncated N-terminal huntington 150 Q-EGFP-Neuron 2a cells; assay: Measurement of x-Fold (polyglutamine aggregation inhibitory activity); format: cell-based
Method: In the present invention, the polyglutamine aggregation inhibitory activity (x-Fold) can be measured, for example, by the method described in the Example.
The number of the aggregated cells, and the total number of cells were counted by Array Scan V T1 (manufactured by Cellomics, Pittuburg, USA), and the ratio of the aggregated cells to the total number of cells was determined (x-Fold). […]

[3] = TGase activity with compound (10 mM, 1 μL in 0.1 ml enzyme reaction solution), DMSO control taken as 100
[4] = TGase inhibitory activity value, Table 1
[5] = polyglutamine aggregation inhibitory activity, Table 1
[6] = ratio of aggregated cells to total number of cells, compound 20 μM, 20 hr, almost 1 without compound, smaller = stronger inhibition
[7] = TGase inhibitory activity measurement, unit not given
[8] = polyglutamine aggregation, Truncated N-terminal huntington 150 Q-EGFP-Neuron 2a cells

Compound | TGase activity remaining (% of DMSO control = 100) [1, 3] | TGase activity remaining (% of DMSO control = 100) [1, 4] | x-Fold [2, 5] | x-Fold [2, 6] | also measured
FC(F)(F)c1ccc(C(OB(c2ccccc2)c2ccccc2COCc2ccccc2B(OC(c2ccc(C(F)(F)F)cc2)c2ccccn2)c2ccccc2)c2ccccn2)cc1 (stereo not drawn) [Example 134, (2-pyridyl-4-trifluoromethylphenylmethoxyphenylboryl 2-benzyl)ether] | 94 | 94 | 0.92 | 0.92 | –
Fc1cc(B(OCCNc2ccccc2)c2ccc(Cl)c(F)c2)ccc1Cl [Example 237, di(4-chloro-3-fluorophenyl) 2-phenylaminoethyl borinate] | 88 | 88 | 1.15 | 1.15 | –
O=C(OB(c1ccccc1)c1ccccc1)C1CNCCN1 (stereo not drawn) [Example 279, diphenyl(2-piperazinecarboxy)borane] | 103 | 103 | 0.98 | 0.98 | –
Cc1ccc(B(OCCN)c2ccc(-c3ccc(B(OCCN)c4ccc(C)cc4)cc3)cc2)cc1 [Example 364, 4,4′-(4-methylphenylaminoethoxyboryl)diphenyl] | 44 | 44 | 0.82 | 0.82 | –
OB(c1ccccc1)c1ccc2sc3ccc(B(O)c4ccccc4)cc3c2c1 [Example 387, 2,8-di(phenylhydroxyboryl)dibenzothiophene] | 96 | 96 | 0.73 | 0.73 | –
4,4′-(phenyl piperazino-O,O-ethoxyboryl)benzylether [Example 197] | 99 | 99 | 1.02 | 1.02 | –
CCCCB(CCCC)OC(=O)C(N)CC(N)=O (stereo not drawn) [Example 183, dibutyl(asparagine-O,N)borane] | 91 | 91 | 1.02 | 1.02 | –
c1ccc(B2OCCN3CCN(CCOB(c4ccccc4)c4cccc(c4)COCc4cccc2c4)CC3)cc1 [Example 173, (3,3′-(phenylpiperazino-O,O-ethoxyboryl)benzyl)ether] | 122 | 122 | 1.06 | 1.06 | –
OB(c1ccccc1)c1ccccc1CCOCc1ccccc1B(O)c1ccccc1 [Example 368, (2-(phenylhydroxyboryl)phenethyl)((2-phenylhydroxyboryl)benzyl)ether] | 52 | 52 | 1.03 | 1.03 | –
O=C(OB(c1ccccc1)c1ccccc1)c1ccccn1 [Example 218, diphenyl(picolinate-O,N)borane] | 90 | 90 | 0.97 | 0.97 | –
OB(c1ccc(F)c(F)c1)c1ccc(F)c(F)c1 [Example 80, bis(3,4-difluorophenyl)borinic acid] | 93 | 93 | 0.90 | 0.90 | –
NCCOB(c1ccc(Cl)cc1F)c1ccc(Cl)cc1F [Example 84, 2-aminoethyl bis(4-chloro-2-fluorophenyl)borinate] | 91 | 91 | 0.92 | 0.92 | –
OB(c1cc(F)c(F)c(F)c1)c1cc(F)c(F)c(F)c1 [Example 81, bis(3,4,5-trifluorophenyl)borinic acid] | 97 | 97 | 0.92 | 0.92 | –
Cc1ccc(B(OCCN2CCN(CCOB(c3ccc(C)c(Cl)c3)c3ccc(C)c(Cl)c3)CC2)c2ccc(C)c(Cl)c2)cc1Cl [Example 116, bis(di(3-chloro-4-methylphenyl)boryloxyethyl)piperazine] | 108 | – | – | 1.02 | –
Cc1ccc(B(O)c2ccc(Oc3ccc(B(O)c4ccc(C)c(Cl)c4)cc3)cc2)cc1Cl [Example 201, 4,4′-di((3-chloro-4-methylphenyl 2-hydroxyboryl)phenyl)ether] | 99 | – | – | 0.57 | –
Cc1ccc(B(OCCN2CCCCC2)c2ccc(Oc3ccc(B(OCCN4CCCCC4)c4ccc(C)cc4)cc3)cc2)cc1 [Example 447, bis(4,4′-(tolylpiperadylethoxyboryl)phenyl)ether] | 97 | – | – | 0.49 | TGase activity remaining (% of DMSO control = 100) [1, 7]: 97; x-Fold [2, 8]: 0.49
COc1ccc(C(OB(c2ccccc2)c2ccc(COCc3ccc(B(OC(c4ccc(OC)cc4)c4ccccn4)c4ccccc4)cc3)cc2)c2ccccn2)cc1 (stereo not drawn) [Example 126, bis(phenyl 2-pyridyl-4-methoxyphenylmethoxyborylbenzyl)ether] | 81 | – | – | 1.04 | –
tetramethylrhodamine aminoethylaminoethyl diphenylborinate [Example 162] | −2 | −2 | 0.85 | 0.85 | –
NCCOB(c1ccc(F)c(Cl)c1)c1ccc(F)c(Cl)c1 [Example 77, 2-aminoethyl-bis(3-chloro-4-fluorophenyl)borinate] | 98 | – | – | 0.91 | TGase activity remaining (% of DMSO control = 100) ([1]; TGase inhibitory activity value, Table 1, listed as 6006): 98; x-Fold ([2]; polyglutamine aggregation inhibitory activity, Table 1, listed as 6006): 0.91
OB(c1ccc(C(F)(F)F)cc1)c1c2ccccc2c(B(O)c2ccc(C(F)(F)F)cc2)c2ccccc12 [Example 374] | 17 | 17 | 1.14 | 1.14 | –
c1ccc(CNCCOB(c2ccccc2)c2cccc(COCc3cccc(B(OCCNCc4ccccc4)c4ccccc4)c3)c2)cc1 [Example 199, bis(3,3′-(phenylbenzylaminoethoxyboryl)benzyl)ether] | 3 | 3 | 0.90 | 0.90 | –
OB(c1cccc(COCc2cccc(B(O)c3cccc4ccccc34)c2)c1)c1cccc2ccccc12 [Example 347, bis(3-(1′-naphthylhydroxyboryl)benzyl)ether] | 104 | – | – | 0.90 | –
NCCNCCOB(c1ccccc1)c1ccccc1 [Example 154, diphenyl 2-aminoethylaminoethyl borinate] | 105 | 105 | 0.96- | 0.96 | –
NCCOB(c1ccc(Cl)c(F)c1)c1ccc(Cl)c(F)c1 [Example 93, aminoethyl bis(4-chloro-3-fluorophenyl)borinate] | 117 | – | 0.93 | 0.93 | TGase activity remaining (% of DMSO control = 100) ([1]; TGase inhibitory activity value, Table 1, listed as 6023): 117
NC(c1ccccc1)C(OB(c1ccccc1)c1ccccc1)c1ccccc1 (stereo not drawn) [Example 224, diphenyl 1-(2-aminobenzyl) 1-phenylmethylborinate] | 112 | 112 | 0.89 | 0.89 | –
NC(CS)C(=O)OB(c1ccccc1)c1ccc(Oc2ccc(B(OC(=O)C(N)CS)c3ccc(CO)cc3)cc2)cc1 (stereo not drawn) [Example 397, (4-(phenyl-cysteineboryl)phenyl)(4′-(hydroxymethylphenyl-cysteineboryl)phenyl)ether] | 70 | – | – | 0.59 | TGase activity remaining (% of DMSO control = 100) [1, 7]: 70; x-Fold [2, 8]: 0.59
NCCCC(N)C(=O)OB(c1ccccc1)c1ccccc1 (stereo not drawn) [Example 245, diphenyl(ornithine-O,N)borane] | 94 | – | – | 0.91 | TGase activity remaining (% of DMSO control = 100) ([1]; TGase inhibitory activity value, Table 1, listed as 921): 94; x-Fold ([2]; polyglutamine aggregation inhibitory activity, Table 1, listed as 921): 0.91
OB(c1cc(F)cc(Cl)c1)c1cc(F)cc(Cl)c1 [Example 97, bis(3-chloro-5-fluorophenyl)borinic acid] | 122 | 122 | 0.72 | 0.72 | –
OB(c1ccc(COCc2ccc(B(O)c3cccc4ccccc34)cc2)cc1)c1cccc2ccccc12 [Example 141, bis(4,4′-(1-naphthylhydroxyboryl)benzyl)ether] | 97 | 97 | 0.92 | 0.92 | –
